The values that follow come from ChEMBL document CHEMBL3430912, “GSK Tres Cantos Anti-Kinetoplastid Screening (TCAKS) Data”.

SMILES strings stand for the structures.

Data set [1] concerns Trypanosoma cruzi. The experiment in a line: GSK_TCAKS: pIC50 Trypanosoma cruzi viability assay using beta-GAL activity. This assay was run at single shot at 5uM compound concentration per well. The biological reagents consisted of NIH-3T3 host cells and trypomastigotes parasitic cells; both cell types were set to a 3.3 * 10^5 cells/mL dilution in assay DMEM by means of a CASY cell counter device using a 60um capillary. 6 uL of the mixture were dispensed per well (about 1 * 10^3 host-cells and 1 * 10^3 parasites) with a Multidrop Combi dispenser. […] In all wells, the percentage of DMSO never exceeded 0.5%. Plates incubated for four days at 37C, 5% CO2. The substrate used for the assay fluorescence intensity (FLINT) readout was resorufin-beta-D-galactopiranoside (Sigma-Aldrich) at 5uM per well. It was diluted in PBS supplemented with the soft detergent Igepal (Fluka). In kind it is functional, organism-based, Mus musculus. To be noted: Tulahuen, NIH3T3.

For data set [2], the system named is Trypanosoma cruzi. Briefly: (§1) GSK_TCAKS: pIC50 Trypanosoma cruzi Imaging: Infected Cells. […] Cells were then washed once with PBS before infection. T. cruzi trypomastigotes, collected at days 5 to 8 after infection from LLC-MK2 parasite infected cultures, were allowed to swim out for 4h at 37C from a centrifuged pellet (2,500 rpm/10 min/room temperature). Trypomastigotes were then collected and counted in a CASY Cell Counter. Trypomastigotes, in supplemented DMEM, were added to H9c2 cultures in a multiplicity of infection of 1 and incubated for 18 h. Cells were washed once with PBS before incubation of the infected H9c2 monolayer with trypsin (Life-Technologies) to detach cells from the flask. Cells were counted in a CASY Cell Counter using a 150 um capillary and their density set at 5 * 10^4 cells per mL in supplemented assay DMEM. Infected H9c2 were dispensed into 384-well poly-lysine coated assay plates at 50uL per well using a Multidrop Combi dispenser. After seeding them, the plates were incubated at 37C, 5% CO2 for 72h. Cultures were then fixed and stained by addition of 50 uL of a solution containing 8% formaldehyde and 4 uM DRAQ5 DNA dye (BioStatus, UK) per well. […] Five images were collected per well for reliable statistical analysis. Automated image analysis was performed with a script developed on Acapella High Content Imaging and Analysis Software (PerkinElmer). Output: percentage of infected cells per well as a second infection marker. The settings on record: H9c2, 4 h. The data set is classed as functional, organism-based, Rattus norvegicus.

The subject of data set [3] is Trypanosoma cruzi. The experiment in a line: GSK_TCAKS: pIC50 Trypanosoma cruzi Imaging: Amastigotes/Cell. […] Cells were then washed once with PBS before infection. T. cruzi trypomastigotes, collected at days 5 to 8 after infection from LLC-MK2 parasite infected cultures, were allowed to swim out for 4h at 37C from a centrifuged pellet (2,500 rpm/10 min/room temperature). Trypomastigotes were then collected and counted in a CASY Cell Counter. Trypomastigotes, in supplemented DMEM, were added to H9c2 cultures in a multiplicity of infection of 1 and incubated for 18 h. Cells were washed once with PBS before incubation of the infected H9c2 monolayer with trypsin (Life-Technologies) to detach cells from the flask. Cells were counted in a CASY Cell Counter using a 150 um capillary and their density set at 5 * 10^4 cells per mL in supplemented assay DMEM. Infected H9c2 were dispensed into 384-well poly-lysine coated assay plates at 50uL per well using a Multidrop Combi dispenser. After seeding them, the plates were incubated at 37C, 5% CO2 for 72h. Cultures were then fixed and stained by addition of 50 uL of a solution containing 8% formaldehyde and 4 uM DRAQ5 DNA dye (BioStatus, UK) per well. […] Five images were collected per well for reliable statistical analysis. Automated image analysis was performed with a script developed on Acapella High Content Imaging and Analysis Software (PerkinElmer). Output: number of amastigotes per cell as infection level measurement. In kind it is functional, organism-based, Rattus norvegicus. The settings on record: H9c2, 4 h.

The test system of data set [4] is Trypanosoma cruzi. The description is as §1, with “H2C9” for “Trypanosoma cruzi”, “H9c2 Host Cardiomyocytes.” for “Infected Cells.”, “Number” for “percentage”, “H9c2 Host Cardiomyocytes nuclei to determine drug-related cytotoxicity.” for “infected cells per well as a second infection marker.”. The data set is classed as functional, organism-based, Rattus norvegicus. To be noted: H9c2, 4 h.

In data set [5] the test system is Leishmania donovani. The experiment in a line: GSK_TCAKS: pIC50 Leishmania donovani viability assay using fluorescence intensity. Assay plates (1536-well) were prepared by adding 30nL per well of compound. For single shot assay, the final compound concentration was 5uM. […] Briefly, eGFP LdBOB axenic amastigotes were harvested, fixed and counted in a CASY cell counter (Roche-Applied Science). A final concentration of 1.5 * 10^5 cells per well were prepared in amastigote media containing 500 U/mL penicillin/streptomycin (Invitrogen) and 6uL was dispensed to each experimental well using a Multidrop Combi dispenser (Thermo Scientific). 6uL of assay media was dispensed to control columns used as reference for 100% compound response. Following incubation for 72 h at 37C, 5% CO2, 2 uL of resazurin was added to each well at a final concentration of 0.5 mM in phosphate buffered saline (PBS) with IGEPAL (Sigma-Aldrich), 0.05% (v/v). The data set is classed as functional, organism-based.

In data set [6] the test system is Leishmania donovani. Briefly: GSK_TCAKS: pIC50 Leishmania donovani Imaging: Infected Macrophages. Assay plates (384-well) were prepared by adding 250nL of compound to each well. For single shot assay, the final compound concentration was 5 uM. […] Automated image analysis was performed with a script developed on Acapella High Content Imaging and Analysis Software (PerkinElmer). Output: Percent of infected macrophage cells were reported for each well. The data set is classed as functional, organism-based, Homo sapiens. The settings on record: THP-1.

Data set [7] concerns Leishmania donovani. The experiment in a line: GSK_TCAKS: pIC50 Leishmania donovani Imaging: Amastigotes/Macrophages. Assay plates (384-well) were prepared by adding 250nL of compound to each well. For single shot assay, the final compound concentration was 5 uM. […] Automated image analysis was performed with a script developed on Acapella High Content Imaging and Analysis Software (PerkinElmer). Output: Average number of amastigotes per macrophage cell were reported for each well. The data set is classed as functional, organism-based, Homo sapiens. To be noted: THP-1.

Data set [8] has as its system Leishmania donovani. The experiment in a line: GSK_TCAKS: pIC50 Leishmania donovani Imaging: THP-1 Host Macrophages. Assay plates (384-well) were prepared by adding 250nL of compound to each well. For single shot assay, the final compound concentration was 5 uM. […] Automated image analysis was performed with a script developed on Acapella High Content Imaging and Analysis Software (PerkinElmer). Output: THP-1 cell count were reported for each well. In kind it is functional, organism-based, Homo sapiens.

In data set [9] the test system is Trypanosoma brucei brucei. The experiment in a line: GSK_TCAKS: pIC50 Trypanosoma brucei viability assay using fluorescence intensity. Assay plates (1536-well) were prepared by dispensing 25nL of compound solution per well using an Echo acoustic dispenser (Labcyte). To be noted: Lister 427, 2 h. The data set is classed as functional, organism-based.
In data set [10] the test system is Trypanosoma brucei brucei. The experiment in a line: GSK_TCAKS: pIC50 Trypanosoma brucei viability assay using luminiscence. Assay plates (1536-well) were prepared. T. brucei cultures were harvested and counted in a CASY cell counter. A parasite suspension was prepared at a final concentration of 5 * 10^4 cells/mL in complete HMI9 medium and 6uL was dispensed to all wells containing compounds using a Multidrop Combi dispenser. 6uL of HMI9 media with 0.4% DMSO were dispensed to control columns. Plates were incubated for 24 h at 37C, 5% CO2 then tempered for 10 min at room temperature. ATP content was quantified by adding 4 uL of CellTiter-Glo Reagent (Promega) according to the manufacturer's instructions. Luminescence was measured using a ViewLux. In kind it is functional, organism-based. To be noted: Lister 427, CASY. Background: Cellular ATP, detected with luciferase, serves as a proxy for viable cell number.

Data set [11] is described as follows: GSK_TCAKS: pIC50 HepG2 human cell line viability assay using luminiscence. […] Seeding density was checked to ensure that new mono-layers were not more than 50% confluent at the time of harvesting. Cell suspension was added to 500 mL of the same medium at a final density of 1.2 * 10^5 cells/mL. This cell suspension was dispensed (25 uL, 3000 cells per well) into 384-well clear-bottom plates using a Multidrop Combi dispenser. Prior to addition of the cell suspension, the screening compounds (250 nL) were pre-dispensed into the plates with an Echo liquid handler. Plates were incubated for 48 h at 37C, 5% CO2. After incubation, plates equilibrated at room temperature for 30 min before proceeding to develop the luminescent signal. The signal developer, CellTiter-Glo Reagent, was allowed to equilibrate at room temperature for 30 min and added to the plates (25uL per well) using a Multidrop Combi dispenser. Plates were left for 10 min at room temperature for stabilization and then read using a ViewLux. In kind it is toxicity, cell-based.

The test system of another data set is NIH3T3. The experiment in a line: GSK_TCAKS: pIC50 NIH 3T3 cell line viability assay using luminiscence. Tissue culture surface treated assay plates (1536-well) were used. […] The 100% cells survival control was determined exposing the host-cells to a 0.5% DMSO concentration, whereas the 100% toxicity control was achieved by seeding the cells in presence of Amphotericin B at 50uM. Plates were incubated for four days at 37C, 5% CO2. The assay readout was developed by addition of 5uL of CellTiter-Glo Reagent following the manufacturer's instructions. Luminiscence was measured using a ViewLux. The data set is classed as functional, cell-based. The settings on record: Mus musculus, NIH3T3, 96 h.

The target of data set [12] is Sterol 14-alpha demethylase (Trypanosoma cruzi (strain CL Brener), UniProt Q7Z1V1). The experiment in a line: GSK_TCAKS: pIC50 CYP51 from Trypanosoma cruzi. In kind it is functional.
Sterol 14-alpha demethylase, sequence (Q7Z1V1 whole entry): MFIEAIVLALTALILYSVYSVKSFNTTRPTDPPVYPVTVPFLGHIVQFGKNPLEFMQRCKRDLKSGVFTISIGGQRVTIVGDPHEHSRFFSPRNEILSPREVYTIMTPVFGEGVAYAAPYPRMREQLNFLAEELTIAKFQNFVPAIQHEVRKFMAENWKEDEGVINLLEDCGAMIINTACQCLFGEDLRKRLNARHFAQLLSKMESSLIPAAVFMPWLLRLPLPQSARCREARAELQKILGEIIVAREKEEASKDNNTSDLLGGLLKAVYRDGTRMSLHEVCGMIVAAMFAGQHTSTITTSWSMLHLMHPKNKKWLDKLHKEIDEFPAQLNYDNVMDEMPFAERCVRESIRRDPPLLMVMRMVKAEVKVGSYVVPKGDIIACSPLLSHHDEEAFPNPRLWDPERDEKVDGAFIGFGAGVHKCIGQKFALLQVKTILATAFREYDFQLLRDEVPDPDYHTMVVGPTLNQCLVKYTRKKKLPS

On to `CNc1c(C(N)=O)c(-c2ccc3scnc3c2)nn1CC(F)(F)F`, for which the IC50 (usually the midpoint of a concentration-inhibition curve) in the data set with Trypanosoma cruzi [1] is 0.126 µM; with Trypanosoma cruzi [2], 0.251 µM; in the data set on Trypanosoma cruzi [3] it was 0.158 µM; with Trypanosoma cruzi [4], over 50.1 µM; in the data set on Leishmania donovani [5] it was over 50.1 µM; in the data set with Leishmania donovani [6], over 50.1 µM. The IC50 was over 50.1 µM in the data set with Leishmania donovani [7]; over 50.1 µM in the data set on Leishmania donovani [8]; 31.6 µM in data set [9]; over 39.8 µM in data set [10]; 20 µM in the data set with NIH3T3; over 100 µM in data set [12]. The molecule further had a half-maximal inhibitory concentration (IC50) at 48 h in [11] of over 100 µM.

In the case of `O=C(Nc1ccc(C(=O)N2CCCC2c2ccc3c(c2)OCCCO3)cc1)c1ccco1` (stereo not drawn), the half-inhibitory concentration (IC50) in the data set with Trypanosoma cruzi [1] is 0.501 µM; with Trypanosoma cruzi [2] it was 1 µM; with Trypanosoma cruzi [3] it was 0.631 µM; with Trypanosoma cruzi [4] it was over 50.1 µM; with Leishmania donovani [5], 0.794 µM; with Leishmania donovani [6], 6.31 µM. For the same molecule, the half-inhibitory concentration (IC50) is 3.16 µM in the data set with Leishmania donovani [7]; over 50.1 µM in the data set with Leishmania donovani [8]; 0.2 µM in [9]; 0.316 µM in data set [10]; over 50.1 µM with NIH3T3; 63.1 µM in data set [12]. Besides, the IC50 at 48 h in data set [11] is over 100 µM.

With `Cc1cc(Br)cc(C(=O)c2c(C(C)C)c(=O)[nH]c(=O)n2Cc2ccnc(N)c2)c1`, the IC50 in the data set on Trypanosoma cruzi [1] is 0.398 µM; with Trypanosoma cruzi [2], 0.316 µM; with Trypanosoma cruzi [3], 0.251 µM; in the data set with Trypanosoma cruzi [4] it was over 50.1 µM; with Leishmania donovani [5], over 50.1 µM; in the data set on Leishmania donovani [6] it was 31.6 µM. Also, the half-inhibitory concentration (IC50) in the data set with Leishmania donovani [7] is 20 µM; in the data set on Leishmania donovani [8] it was 39.8 µM; in data set [9] it was 12.6 µM; in data set [10], 25.1 µM; in the data set on NIH3T3, 15.8 µM; in data set [12], 0.0158 µM. Besides, the concentration for half-maximal inhibition (IC50) at 48 h in [11] was over 100 µM.

For the molecule `Cc1nn(C)c(Cl)c1CN(Cc1cccnc1)Cc1ccsc1`, the half-inhibitory concentration (IC50) in the data set on Trypanosoma cruzi [1] was 0.178 µM; with Trypanosoma cruzi [2], 0.316 µM; in the data set with Trypanosoma cruzi [3], 0.316 µM; in the data set with Trypanosoma cruzi [4] it was over 50.1 µM; in the data set on Leishmania donovani [5] it was 2 µM; in the data set with Leishmania donovani [6], over 50.1 µM. For the same molecule, the IC50 in the data set on Leishmania donovani [7] is 3.16 µM; in the data set with Leishmania donovani [8], over 50.1 µM; in data set [9], over 39.8 µM; in data set [10], over 39.8 µM; with NIH3T3, 20 µM; in data set [12], 0.0631 µM. Further, the concentration for half-maximal inhibition (IC50) at 48 h in [11] was over 100 µM.

Take `CN(Cc1cccnc1)Cc1ccc(N2CCN(C(=O)C3(c4ccc(Cl)cc4)CC3)CC2)nc1`: the half-inhibitory concentration (IC50) in the data set with Trypanosoma cruzi [1] was 0.501 µM; in the data set with Trypanosoma cruzi [2], 1.58 µM; in the data set on Trypanosoma cruzi [3], 1.26 µM; in the data set with Trypanosoma cruzi [4], over 50.1 µM; with Leishmania donovani [5], 31.6 µM; in the data set on Leishmania donovani [6], over 50.1 µM. Moreover, the half-maximal inhibitory concentration (IC50) with Leishmania donovani [7] was over 50.1 µM; with Leishmania donovani [8] it was 10 µM; in [9], 31.6 µM; in [10] it was 25.1 µM; in the data set with NIH3T3, 7.94 µM; in [12], 0.158 µM. The IC50 at 48 h in data set [11] is over 100 µM.

In the case of `CS(=O)(=O)c1ccc(CC(=O)Nc2nc(-c3ccc(Cl)s3)cs2)cc1`, the concentration for half-maximal inhibition (IC50) is 0.398 µM in the data set on Trypanosoma cruzi [1]; 0.316 µM with Trypanosoma cruzi [2]; 0.398 µM in the data set on Trypanosoma cruzi [3]; 15.8 µM in the data set on Trypanosoma cruzi [4]; over 50.1 µM with Leishmania donovani [5]; over 50.1 µM with Leishmania donovani [6]. Moreover, the IC50 in the data set with Leishmania donovani [7] is over 50.1 µM; in the data set with Leishmania donovani [8] it was 15.8 µM; in data set [9] it was 10 µM; in data set [10], over 39.8 µM; in the data set on NIH3T3, over 50.1 µM; in data set [12], over 100 µM. The IC50 at 48 h in data set [11] is over 100 µM.
